From patent US20220370440A1 (Lead Discovery Center GmbH, priority 2018, published 2022)

What was measured:
[1] = molecular target: T1, HER2 INS YVMA (Homo sapiens, UniProt P04626, INS775YVMA); test: Lance Kinase Activity Assay, HER2 INS YVMA (Her2 Exon 20 INSYVMA Lance); format: biochemical; settings: biochemical Lance assay
T1 construct: purchased DPF
How it was run: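 Kinase phosphorylates a ULight-labelled peptide substrate; Eu anti-phospho antibody gives TR-FRET (ex 340 nm, em 665/615 nm). Compounds in 1:3 serial dilution over 8 steps, reaction started with ATP, 1 h at room temperature, stopped with EDTA-containing detection mix for 1 h. IC50 from sigmoidal dose-response curves.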

[2] = molecular target: Her2 Exon 20 INSYVMA Ba/F3 (Homo sapiens, UniProt P04626, DUP772-775, cells depend on it); test: Her2 Exon 20 INSYVMA Ba/F3 CellTiter-Glo; format: cell-based; settings: CellTiter-Glo, 72 h, read-out: Her2 Exon 20 INSYVMA Ba/F3 CTG IC50
How it was run: (§1)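 Using a 72 h viability readout, compound-treated Ba/F3 cells (pre-incubated 24 h after seeding) were lysed with CellTiter-Glo reagent and luminescence recorded. Potency was expressed as IC50 from a fitted dose–response curve.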

[3] = molecular target: EGFR Exon 20 INSNPH Ba/F3 (Homo sapiens, UniProt P00533, DUP771-773, cells depend on it); test: EGFR Exon 20 INSNPH Ba/F3 CellTiter-Glo; format: cell-based; settings: CellTiter-Glo, 72 h, read-out: EGFR Exon 20 INSNPH Ba/F3 CTG IC50
How it was run: as §1

[4] = molecular target: EGFR T790ML858R (Homo sapiens, UniProt P00533, L858R/T790M); test: EGFR T790ML858R Lance assay; format: biochemical
Protocol: (§2) Inhibition is indicated as […] [nM] (“−”=not measured). Compounds having an activity designated as “A” provided an IC50≤100 nM; compounds having an activity designated as “B” provided an 100 nM<IC50≤500 nM; compounds having an activity designated as “C” provided an 500 nM<IC50≤1000 nM; compounds having an activity designated as “D” provided an 1000 nM<IC50≤100000 nM; and compounds having an activity designated as “E” provided an IC50>10000 nM.

[5] = molecular target: EGFR wt (Homo sapiens, UniProt P00533); test: EGFR wt Lance assay; format: biochemical
Protocol: as §2

[6] = system: H1975; test: H1975 CellTiter-Glo; format: cell-based; settings: Homo sapiens, NCI-H1975; 72 h compound incubation; read-out: H1975 CTG IC50
How it was run: (§3)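 Luminescence from cellular ATP serves as the viability signal after cells are treated with compound dilutions for 72 h at 37° C. IC50 is derived by curve fitting, with DMSO-treated and 10 μM Staurosporine-treated wells defining the assay window.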

[7] = system: A431; test: A431 CellTiter-Glo; format: cell-based; settings: Homo sapiens, A-431; 72 h compound incubation; read-out: A431 CTG IC50
How it was run: as §3

[8] = Metabolic stability in mouse liver microsomes without cofactor NADPH; format: in vitro ADME; settings: 3 μM test compound, mouse liver microsomes, without NADPH, 50 min, 37° C., LC-MS/MS
How it was run: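 Test compound (3 μM) was incubated with mouse liver microsomes without NADPH at 37° C. Depletion was followed by LC-MS/MS over time up to 50 min.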

Sequence of EGFR Exon 20 INSNPH Ba/F3 (P00533 with tags, fused parts or gaps DUP771-773): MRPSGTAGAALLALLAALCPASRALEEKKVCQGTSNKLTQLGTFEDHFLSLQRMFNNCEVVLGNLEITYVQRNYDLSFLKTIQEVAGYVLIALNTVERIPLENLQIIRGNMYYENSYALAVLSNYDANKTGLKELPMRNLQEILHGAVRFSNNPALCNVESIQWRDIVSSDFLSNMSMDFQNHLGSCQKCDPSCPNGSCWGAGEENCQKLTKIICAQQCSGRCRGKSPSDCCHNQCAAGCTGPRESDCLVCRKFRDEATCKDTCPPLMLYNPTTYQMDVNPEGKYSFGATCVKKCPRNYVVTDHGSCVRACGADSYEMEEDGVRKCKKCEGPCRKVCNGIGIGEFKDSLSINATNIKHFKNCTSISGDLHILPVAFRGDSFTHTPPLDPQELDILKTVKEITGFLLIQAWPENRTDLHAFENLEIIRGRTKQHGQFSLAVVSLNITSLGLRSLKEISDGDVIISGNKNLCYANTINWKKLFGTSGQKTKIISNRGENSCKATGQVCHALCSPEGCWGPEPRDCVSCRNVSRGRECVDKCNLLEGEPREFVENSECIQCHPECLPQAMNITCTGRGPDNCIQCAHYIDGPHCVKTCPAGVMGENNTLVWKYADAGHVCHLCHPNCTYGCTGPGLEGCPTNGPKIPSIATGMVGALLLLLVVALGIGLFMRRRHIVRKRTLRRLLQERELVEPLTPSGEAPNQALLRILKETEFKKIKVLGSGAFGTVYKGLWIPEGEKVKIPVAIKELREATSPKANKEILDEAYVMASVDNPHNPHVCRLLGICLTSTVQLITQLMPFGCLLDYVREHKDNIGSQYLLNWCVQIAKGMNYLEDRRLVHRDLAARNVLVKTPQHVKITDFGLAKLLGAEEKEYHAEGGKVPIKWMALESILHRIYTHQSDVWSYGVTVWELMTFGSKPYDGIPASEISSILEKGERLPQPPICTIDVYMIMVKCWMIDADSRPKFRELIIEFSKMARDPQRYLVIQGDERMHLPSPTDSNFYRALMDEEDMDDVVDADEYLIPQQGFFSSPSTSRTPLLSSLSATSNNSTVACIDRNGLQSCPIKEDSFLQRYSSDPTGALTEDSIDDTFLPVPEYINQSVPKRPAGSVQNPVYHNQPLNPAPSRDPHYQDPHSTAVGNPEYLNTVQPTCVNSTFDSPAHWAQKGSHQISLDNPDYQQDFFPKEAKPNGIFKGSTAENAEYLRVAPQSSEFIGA
T1 sequence (P04626 with tags, fused parts or gaps INS775YVMA): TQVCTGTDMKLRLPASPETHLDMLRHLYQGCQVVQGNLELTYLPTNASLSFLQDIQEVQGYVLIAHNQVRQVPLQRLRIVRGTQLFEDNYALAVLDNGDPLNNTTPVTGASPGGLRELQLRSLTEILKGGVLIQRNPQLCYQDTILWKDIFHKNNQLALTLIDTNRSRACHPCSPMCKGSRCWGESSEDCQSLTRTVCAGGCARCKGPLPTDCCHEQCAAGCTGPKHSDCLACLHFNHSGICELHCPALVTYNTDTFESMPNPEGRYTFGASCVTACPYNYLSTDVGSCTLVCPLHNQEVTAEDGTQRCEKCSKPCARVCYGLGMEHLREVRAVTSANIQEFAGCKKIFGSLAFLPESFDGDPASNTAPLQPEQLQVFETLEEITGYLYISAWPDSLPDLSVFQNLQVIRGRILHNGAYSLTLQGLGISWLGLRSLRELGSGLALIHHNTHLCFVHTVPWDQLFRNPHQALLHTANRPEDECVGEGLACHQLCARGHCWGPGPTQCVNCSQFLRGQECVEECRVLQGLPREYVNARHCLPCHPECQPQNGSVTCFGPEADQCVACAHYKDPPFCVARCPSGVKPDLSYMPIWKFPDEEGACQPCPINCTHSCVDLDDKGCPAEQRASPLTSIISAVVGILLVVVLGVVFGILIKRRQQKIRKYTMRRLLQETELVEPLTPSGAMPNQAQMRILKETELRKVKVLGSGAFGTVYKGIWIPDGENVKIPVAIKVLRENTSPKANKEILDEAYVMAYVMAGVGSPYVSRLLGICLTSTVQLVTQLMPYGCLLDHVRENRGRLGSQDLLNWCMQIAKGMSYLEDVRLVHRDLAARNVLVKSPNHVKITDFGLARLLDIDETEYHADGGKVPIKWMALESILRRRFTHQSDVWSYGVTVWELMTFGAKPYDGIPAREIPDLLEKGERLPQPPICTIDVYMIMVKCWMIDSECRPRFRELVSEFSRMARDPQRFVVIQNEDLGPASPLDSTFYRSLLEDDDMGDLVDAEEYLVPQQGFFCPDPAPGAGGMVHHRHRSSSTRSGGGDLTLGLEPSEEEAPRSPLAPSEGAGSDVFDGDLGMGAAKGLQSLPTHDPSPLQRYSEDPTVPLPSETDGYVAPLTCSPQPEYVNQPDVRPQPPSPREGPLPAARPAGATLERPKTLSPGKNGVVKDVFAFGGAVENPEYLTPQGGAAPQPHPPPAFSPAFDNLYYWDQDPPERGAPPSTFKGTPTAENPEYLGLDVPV
Sequence of Her2 Exon 20 INSYVMA Ba/F3 (P04626 with tags, fused parts or gaps DUP772-775): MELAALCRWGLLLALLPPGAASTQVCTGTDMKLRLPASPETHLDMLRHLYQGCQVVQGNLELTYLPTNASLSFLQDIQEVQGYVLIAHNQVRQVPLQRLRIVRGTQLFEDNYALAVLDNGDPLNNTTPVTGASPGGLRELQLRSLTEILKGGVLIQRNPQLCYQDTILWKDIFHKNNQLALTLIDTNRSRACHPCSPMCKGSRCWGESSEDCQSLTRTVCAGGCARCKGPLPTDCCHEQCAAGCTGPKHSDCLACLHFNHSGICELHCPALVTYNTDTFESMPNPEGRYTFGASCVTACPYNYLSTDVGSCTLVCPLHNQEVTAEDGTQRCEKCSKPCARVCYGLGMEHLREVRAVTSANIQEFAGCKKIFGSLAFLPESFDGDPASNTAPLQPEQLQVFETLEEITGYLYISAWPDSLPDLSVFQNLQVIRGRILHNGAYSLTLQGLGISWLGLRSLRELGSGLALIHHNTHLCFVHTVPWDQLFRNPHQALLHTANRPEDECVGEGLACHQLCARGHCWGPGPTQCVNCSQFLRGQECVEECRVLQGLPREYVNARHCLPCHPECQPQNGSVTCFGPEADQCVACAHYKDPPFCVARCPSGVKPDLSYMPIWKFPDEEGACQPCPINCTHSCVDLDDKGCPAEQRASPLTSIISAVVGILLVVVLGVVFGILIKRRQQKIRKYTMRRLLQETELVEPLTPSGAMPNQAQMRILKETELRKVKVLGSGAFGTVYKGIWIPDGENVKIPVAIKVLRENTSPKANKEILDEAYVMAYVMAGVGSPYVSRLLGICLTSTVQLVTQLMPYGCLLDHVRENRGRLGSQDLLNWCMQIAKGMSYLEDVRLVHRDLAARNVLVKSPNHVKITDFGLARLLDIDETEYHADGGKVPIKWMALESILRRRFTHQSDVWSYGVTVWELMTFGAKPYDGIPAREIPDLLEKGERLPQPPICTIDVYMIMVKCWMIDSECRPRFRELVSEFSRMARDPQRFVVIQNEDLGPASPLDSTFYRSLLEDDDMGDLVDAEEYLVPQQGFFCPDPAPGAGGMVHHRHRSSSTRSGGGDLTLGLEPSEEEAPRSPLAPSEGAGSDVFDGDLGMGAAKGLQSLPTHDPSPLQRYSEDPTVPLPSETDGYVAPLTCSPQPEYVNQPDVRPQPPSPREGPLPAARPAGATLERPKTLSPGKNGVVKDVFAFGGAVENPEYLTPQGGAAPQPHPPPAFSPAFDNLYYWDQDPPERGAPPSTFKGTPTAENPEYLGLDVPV
Sequence of EGFR wt (P00533 25-1210): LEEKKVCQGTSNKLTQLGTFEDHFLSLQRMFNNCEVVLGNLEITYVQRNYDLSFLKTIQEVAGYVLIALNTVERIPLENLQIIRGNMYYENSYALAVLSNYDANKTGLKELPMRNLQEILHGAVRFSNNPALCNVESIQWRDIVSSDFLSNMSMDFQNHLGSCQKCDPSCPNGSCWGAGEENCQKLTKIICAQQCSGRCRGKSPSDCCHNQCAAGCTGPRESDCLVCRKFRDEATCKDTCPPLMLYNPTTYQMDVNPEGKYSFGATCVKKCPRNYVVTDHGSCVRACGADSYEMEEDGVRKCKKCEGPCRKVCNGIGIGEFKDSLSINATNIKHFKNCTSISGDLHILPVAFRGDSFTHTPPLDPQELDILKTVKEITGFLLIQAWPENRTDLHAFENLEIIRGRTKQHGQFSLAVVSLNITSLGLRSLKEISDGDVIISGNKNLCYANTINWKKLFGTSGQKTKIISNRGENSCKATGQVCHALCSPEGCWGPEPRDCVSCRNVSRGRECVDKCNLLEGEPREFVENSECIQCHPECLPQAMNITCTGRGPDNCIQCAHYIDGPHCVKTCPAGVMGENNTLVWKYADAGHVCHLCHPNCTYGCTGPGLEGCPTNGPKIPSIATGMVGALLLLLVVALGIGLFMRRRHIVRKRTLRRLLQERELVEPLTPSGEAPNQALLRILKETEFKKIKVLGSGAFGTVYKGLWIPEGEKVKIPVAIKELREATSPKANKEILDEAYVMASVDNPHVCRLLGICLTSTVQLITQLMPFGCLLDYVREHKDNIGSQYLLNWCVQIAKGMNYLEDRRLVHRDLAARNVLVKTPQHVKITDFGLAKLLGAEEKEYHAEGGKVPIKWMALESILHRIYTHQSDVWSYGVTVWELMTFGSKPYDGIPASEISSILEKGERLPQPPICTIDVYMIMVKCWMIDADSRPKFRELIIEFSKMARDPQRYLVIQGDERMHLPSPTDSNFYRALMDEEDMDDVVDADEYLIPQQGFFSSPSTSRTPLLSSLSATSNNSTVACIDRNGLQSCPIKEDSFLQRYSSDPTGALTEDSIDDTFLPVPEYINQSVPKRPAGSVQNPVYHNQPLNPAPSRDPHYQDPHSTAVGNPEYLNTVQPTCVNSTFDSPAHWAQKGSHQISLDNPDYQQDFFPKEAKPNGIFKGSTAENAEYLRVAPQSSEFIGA

Row | SMILES | IC50 [1] | GI50 [2] | GI50 [3] | IC50 [4] | IC50 [5] | IC50 [6] | IC50 [7] | Stability in presence of mouse liver microsomes without cofactor NADPH [% remaining after 50 min] [8]
1 | C=CC(=O)Nc1cc(-c2c(-c3ccc(N4CCN(C)CC4)cc3)[nH]c3ncc(C(=O)OC(C)C)cc23)cc(F)c1C [Example 165, isoproyl 3-(3-acrylamido-5-fluoro-4-methylphenyl)-2-(4-(4-methylpiperazin-1-yl)phenyl)-1H-pyrrolo[2,3-b]pyridine-5-carboxylate 2,2,2-trifluoroacetate] | ≤ 0.1 µM | 0.1 to 0.5 µM | 0.1 to 0.5 µM | ≤ 0.1 µM | ≤ 0.1 µM | 0.1 to 0.5 µM | 1 to 100 µM | >99 % remaining after 50 min
2 | C=CC(=O)N1CCCc2ccc(-c3c(-c4ccc(N5CCN(C(C)C)CC5)cc4)[nH]c4nccc(Cl)c34)cc21 [Example 91, 1-(7-(4-chloro-2-(4-(4-isopropylpiperazin-1-yl)phenyl)-1H-pyrrolo[2,3-b]pyridin-3-yl)-3,4-dihydroquinolin-1(2H)-yl)prop-2-en-1-one] | ≤ 0.1 µM | 0.5 to 1 µM | 0.5 to 1 µM | ≤ 0.1 µM | ≤ 0.1 µM | 0.1 to 0.5 µM | 1 to 100 µM | >99 % remaining after 50 min
3 | C=CC(=O)Nc1cc(-c2c(-c3ccc(OCCN4CCCC4)cc3)[nH]c3ncc(C(=O)OC(C)C)cc23)ccc1C [Example 158, isopropyl 3-(3-acrylamido-4-methylphenyl)-2-(4-(2-(pyrrolidin-1-yl)ethoxy)phenyl)-1H-pyrrolo[2,3-b]pyridine-5-carboxylate] | ≤ 0.1 µM | 0.1 to 0.5 µM | 0.1 to 0.5 µM | ≤ 0.1 µM | ≤ 0.1 µM | 0.1 to 0.5 µM | 1 to 100 µM | >99 % remaining after 50 min
4 | C=CC(=O)Nc1cc(-c2c(-c3ccc(N4CCN(C)CC4)cc3)[nH]c3ncc(C(=O)O)cc23)ccc1C [Example 116, 3-(3-acrylamido-4-methylphenyl)-2-(4-(4-methylpiperazin-1-yl)phenyl)-1H-pyrrolo[2,3-b]pyridine-5-carboxylic acid 2,2,2-trifluoroacetate] | ≤ 0.1 µM | > 10 µM | > 10 µM | ≤ 0.1 µM | ≤ 0.1 µM | > 10 µM | > 10 µM | 92 % remaining after 50 min
5 | C=CC(=O)N1CCc2ccc(-c3c(-c4ccc(C(=O)N5CCN(C)CC5)cc4)[nH]c4nccc(Cl)c34)cc21 [Example 66, 1-(6-(4-chloro-2-(4-(4-methylpiperazine-1-carbonyl)phenyl)-1H-pyrrolo[2,3-b]pyridin-3-yl)indolin-1-yl)prop-2-en-1-one] | ≤ 0.1 µM | 0.1 to 0.5 µM | 0.5 to 1 µM | ≤ 0.1 µM | ≤ 0.1 µM | 0.1 to 0.5 µM | 1 to 100 µM | >99 % remaining after 50 min
6 | C=CC(=O)Nc1cc(-c2c(-c3ccc(N4CCN(C)CC4)cc3)[nH]c3ncc(C(=O)OCC)cc23)ccc1C [Example 135, ethyl 3-(3-acrylamido-4-methylphenyl)-2-(4-(4-methylpiperazin-1-yl)phenyl)-1H-pyrrolo[2,3-b]pyridine-5-carboxylate] | ≤ 0.1 µM | 0.1 to 0.5 µM | 0.1 to 0.5 µM | ≤ 0.1 µM | ≤ 0.1 µM | ≤ 0.1 µM | 1 to 100 µM | 95 % remaining after 50 min
7 | C=CC(=O)N1CCCc2ccc(-c3c(-c4ccc(OCCN(C)C)cc4)[nH]c4nccc(Cl)c34)cc21 [Example 92, 1-(7-(4-chloro-2-(4-(2-(dimethylamino)ethoxy)phenyl)-1H-pyrrolo[2,3-b]pyridin-3-yl)-3,4-dihydroquinolin-1(2H)-yl)prop-2-en-1-one] | ≤ 0.1 µM | 0.5 to 1 µM | 1 to 10 µM | ≤ 0.1 µM | ≤ 0.1 µM | 0.5 to 1 µM | 1 to 100 µM | >99 % remaining after 50 min
8 | C=CC(=O)Nc1cc(-c2c(-c3cccc(OCCN4CCCC4)c3)[nH]c3ncc(C(=O)OC(C)C)cc23)ccc1C [Example 170, isopropyl 3-(3-acrylamido-4-methylphenyl)-2-(3-(2-(pyrrolidin-1-yl)ethoxy)phenyl)-1H-pyrrolo[2,3-b]pyridine-5-carboxylate] | ≤ 0.1 µM | 0.1 to 0.5 µM | 0.1 to 0.5 µM | ≤ 0.1 µM | ≤ 0.1 µM | 0.1 to 0.5 µM | 1 to 100 µM | >99 % remaining after 50 min
9 | C=CC(=O)N1CCc2ccc(-c3c(-c4ccc(OCCN5CCCC5)cc4)[nH]c4nccc(OC)c34)cc21 [Example 112, 1-(6-(4-methoxy-2-(4-(2-(pyrrolidin-1-yl)ethoxy)phenyl)-1H-pyrrolo[2,3-b]pyridin-3-yl)indolin-1-yl)prop-2-en-1-one] | ≤ 0.1 µM | 0.5 to 1 µM | 0.5 to 1 µM | ≤ 0.1 µM | ≤ 0.1 µM | 0.1 to 0.5 µM | 1 to 100 µM | 79 % remaining after 50 min
10 | C=CC(=O)N1CCOc2ccc(-c3c(-c4ccc(CN5CCN(C)CC5)cc4)[nH]c4nccc(Cl)c34)cc21 [Example 100, 1-(6-(4-chloro-2-(4-((4-methylpiperazin-1-yl)methyl)phenyl)-1H-pyrrolo[2,3-b]pyridin-3-yl)-2H-benzo[b][1,4]oxazin-4(3H)-yl)prop-2-en-1-one] | ≤ 0.1 µM | 0.1 to 0.5 µM | 0.5 to 1 µM | ≤ 0.1 µM | ≤ 0.1 µM | 0.1 to 0.5 µM | 1 to 100 µM | >99 % remaining after 50 min
11 | C=CC(=O)N1CCc2ccc(-c3c(-c4ccc(OCCN(C)C)cc4)[nH]c4nccc(Cl)c34)cc21 [Example 67, 1-(6-(4-chloro-2-(4-(2-(dimethylamino)ethoxy)phenyl)-1H-pyrrolo[2,3-b]pyridin-3-yl)indolin-1-yl)prop-2-en-1-one] | ≤ 0.1 µM | 0.1 to 0.5 µM | 0.1 to 0.5 µM | ≤ 0.1 µM | ≤ 0.1 µM | 0.1 to 0.5 µM | 1 to 100 µM | >99 % remaining after 50 min
12 | C=CC(=O)Nc1cc(-c2c(-c3ccnc(N4CCOCC4)c3)[nH]c3ncccc23)ccc1C [Example 80, N-(2-methyl-5-(2-(2-morpholinopyridin-4-yl)-1H-pyrrolo[2,3-b]pyridin-3-yl)phenyl)acrylamide] | 0.5 to 1 µM | 1 to 10 µM | 1 to 10 µM | ≤ 0.1 µM | 0.1 to 0.5 µM | 0.1 to 0.5 µM | 1 to 100 µM | >99 % remaining after 50 min
13 | C=CC(=O)N1CCc2ccc(-c3c(-c4ccnc(N5CCN(C)CC5)c4)[nH]c4nccc(OC)c34)cc21 [Example 111, 1-(6-(4-methoxy-2-(2-(4-methylpiperazin-1-yl)pyridin-4-yl)-1H-pyrrolo[2,3-b]pyridin-3-yl)indolin-1-yl)prop-2-en-1-one] | ≤ 0.1 µM | ≤ 0.1 µM | ≤ 0.1 µM | ≤ 0.1 µM | ≤ 0.1 µM | ≤ 0.1 µM | 0.1 to 0.5 µM | 90 % remaining after 50 min
14 | C=CC(=O)Nc1cc(-c2c(-c3cccc(CN(C)C)c3)[nH]c3ncc(C(=O)OC(C)C)cc23)ccc1C [Example 187, isopropyl 3-(3-acrylamido-4-methylphenyl)-2-(3-((dimethylamino)methyl)phenyl)-1H-pyrrolo[2,3-b]pyridine-5-carboxylate] | ≤ 0.1 µM | 0.1 to 0.5 µM | 0.1 to 0.5 µM | ≤ 0.1 µM | ≤ 0.1 µM | 0.1 to 0.5 µM | 1 to 100 µM | >99 % remaining after 50 min
